The source of these data is patent publication US20260028365A1 (BIOGEN MA INC., priority 2022, published 2026).

Bounds are passed on as bounds.

The target of experiment [1] is JH2 domain of human Tyk2 (Homo sapiens (Human), UniProt P29597). In words: JH2 Biochemical Assay (TR-FRET probe displacement). Conditions: TR-FRET probe displacement, JH2 domain. In kind it is binding. On the technique in general: TR-FRET usually uses a lanthanide donor and a delayed reading to cut background.
For experiment [2], the target named is Tyk2 (Homo sapiens (Human), UniProt P29597). In words: pSTAT4 Cell Assay (MSD, NK92 cells). Format: cell-based.
Sequence of Tyk2 (P29597 whole entry): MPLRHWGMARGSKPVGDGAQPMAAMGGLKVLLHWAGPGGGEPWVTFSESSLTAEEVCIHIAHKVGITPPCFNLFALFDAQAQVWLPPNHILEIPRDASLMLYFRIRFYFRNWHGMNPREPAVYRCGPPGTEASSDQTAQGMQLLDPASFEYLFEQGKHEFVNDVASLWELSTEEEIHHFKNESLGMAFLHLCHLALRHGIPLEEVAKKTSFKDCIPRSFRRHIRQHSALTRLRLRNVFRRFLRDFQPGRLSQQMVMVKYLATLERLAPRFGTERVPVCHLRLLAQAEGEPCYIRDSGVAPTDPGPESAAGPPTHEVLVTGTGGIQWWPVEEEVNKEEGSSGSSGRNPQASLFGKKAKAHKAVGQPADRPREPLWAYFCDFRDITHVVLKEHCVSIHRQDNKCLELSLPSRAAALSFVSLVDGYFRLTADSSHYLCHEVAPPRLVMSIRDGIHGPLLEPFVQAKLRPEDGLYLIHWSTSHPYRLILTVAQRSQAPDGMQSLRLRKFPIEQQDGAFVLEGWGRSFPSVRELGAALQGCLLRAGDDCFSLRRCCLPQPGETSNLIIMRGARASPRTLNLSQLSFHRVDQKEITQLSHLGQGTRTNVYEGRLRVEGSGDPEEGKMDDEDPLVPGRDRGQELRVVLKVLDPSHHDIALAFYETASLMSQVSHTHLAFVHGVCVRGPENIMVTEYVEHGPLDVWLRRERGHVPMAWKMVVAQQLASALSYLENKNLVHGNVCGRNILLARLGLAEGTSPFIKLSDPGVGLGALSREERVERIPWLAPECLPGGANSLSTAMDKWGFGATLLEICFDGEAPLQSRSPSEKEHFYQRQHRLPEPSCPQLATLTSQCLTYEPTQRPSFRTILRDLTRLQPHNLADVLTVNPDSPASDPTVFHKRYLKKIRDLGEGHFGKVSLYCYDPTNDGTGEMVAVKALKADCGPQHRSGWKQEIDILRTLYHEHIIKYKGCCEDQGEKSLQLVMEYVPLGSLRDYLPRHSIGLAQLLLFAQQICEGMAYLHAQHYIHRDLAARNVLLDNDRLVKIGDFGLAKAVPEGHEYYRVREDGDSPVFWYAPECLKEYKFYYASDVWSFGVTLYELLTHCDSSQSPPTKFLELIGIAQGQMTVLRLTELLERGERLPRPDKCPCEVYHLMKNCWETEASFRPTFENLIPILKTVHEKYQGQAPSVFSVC

Sequence of JH2 domain of human Tyk2 (P29597 575-876): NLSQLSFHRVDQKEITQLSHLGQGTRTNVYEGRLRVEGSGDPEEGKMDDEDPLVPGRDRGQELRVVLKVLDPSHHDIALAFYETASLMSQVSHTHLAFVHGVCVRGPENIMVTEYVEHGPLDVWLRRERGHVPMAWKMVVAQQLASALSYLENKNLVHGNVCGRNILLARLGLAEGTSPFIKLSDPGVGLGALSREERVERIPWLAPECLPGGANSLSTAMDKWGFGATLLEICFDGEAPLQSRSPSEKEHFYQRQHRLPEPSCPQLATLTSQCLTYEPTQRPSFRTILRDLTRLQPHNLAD

Take `CC(=O)Nc1cc(Nc2ccnc(C(C)(F)F)n2)c(-c2cnn(CCN3CCOCC3)n2)cn1` [Example 778, N-(4-((2-(1,1-difluoroethyl)pyrimidin-4-yl)amino)-5-(2-(2-morpholinoethyl)-2H-1,2,3-triazol-4-yl)pyridin-2-yl)acetamide]: the values for the IC50 in experiment [1] and in experiment [2] were at most 10 nM and 10 to 100 nM, respectively.
For `CC(=O)Nc1cc(Nc2ccnc(C(C)(F)F)n2)c(-c2cnn(CCN3CCN(C)CC3)n2)cn1` [Example 779, N-(4-((2-(1,1-difluoroethyl)pyrimidin-4-yl)amino)-5-(2-(2-(4-methylpiperazin-1-yl)ethyl)-2H-1,2,3-triazol-4-yl)pyridin-2-yl)acetamide], in that order: at most 10 nM and 10 to 100 nM.
The like results for `COCc1cnc(-c2cnc(NC(C)=O)cc2Nc2ccnc(C(C)(F)F)n2)s1` [Example 781, N-(4-((2-(1,1-difluoroethyl)pyrimidin-4-yl)amino)-5-(5-(methoxymethyl)thiazol-2-yl)pyridin-2-yl)acetamide] were, in that order, at most 10 nM and at most 10 nM.
The like results for `CC(=O)Nc1cc(Nc2ccnc(C(C)(F)F)n2)c(-c2ncc(CN(C)C)s2)cn1` [Example 782, N-(4-((2-(1,1-difluoroethyl)pyrimidin-4-yl)amino)-5-(5-((dimethylamino)methyl)thiazol-2-yl)pyridin-2-yl)acetamide] were, in that order, at most 10 nM and at most 10 nM.
`CC(=O)Nc1cc(Nc2cc(C)nc(C(C)(F)F)n2)c(-c2ncc(CN3CCN(C)CC3)s2)cn1` [Example 783, N-(4-((2-(1,1-difluoroethyl)-6-methylpyrimidin-4-yl)amino)-5-(5-((4-methylpiperazin-1-yl)methyl)thiazol-2-yl)pyridin-2-yl)acetamide]: the IC50 in experiment [1] and in experiment [2] was at most 10 nM each time.
As to `CC(=O)Nc1cc(Nc2cc(C)nc(C(C)(F)F)n2)c(-c2nc(CN(C)C)cs2)cn1` [Example 784, N-(4-((2-(1,1-difluoroethyl)-6-methylpyrimidin-4-yl)amino)-5-(4-((dimethylamino)methyl)thiazol-2-yl)pyridin-2-yl)acetamide], the half-maximal inhibitory concentration (IC50) in experiment [1] and in experiment [2] was at most 10 nM in each case.
For `CC(=O)Nc1cc(Nc2cc(C)nc(C(C)(F)F)n2)c(-c2csc(CN(C)C)n2)cn1` [Example 786, N-(4-((2-(1,1-difluoroethyl)-6-methylpyrimidin-4-yl)amino)-5-(2-((dimethylamino)methyl)thiazol-4-yl)pyridin-2-yl)acetamide], the IC50 in experiment [1] and in experiment [2] was at most 10 nM in each case.
On to `CC(=O)Nc1cc(Nc2cc(C)nc(C(C)(F)F)n2)c(-c2csc(CN3CCN(C)CC3)n2)cn1` [Example 787, N-(4-((2-(1,1-difluoroethyl)-6-methylpyrimidin-4-yl)amino)-5-(2-((4-methylpiperazin-1-yl)methyl)thiazol-4-yl)pyridin-2-yl)acetamide], for which the IC50 in experiment [1] and in experiment [2] was at most 10 nM each time.
For the compound `CC(=O)Nc1cc(Nc2ccnc(C(C)(F)F)n2)c(-c2csc(N3CC4(COC4)C3)n2)cn1` [Example 789, N-(5-(2-(2-oxa-6-azaspiro[3.3]heptan-6-yl)thiazol-4-yl)-4-((2-(1,1-difluoroethyl)pyrimidin-4-yl)amino)pyridin-2-yl)acetamide], the IC50 in experiment [1] and in experiment [2] was at most 10 nM each time.
For `CC(=O)Nc1cc(Nc2ccnc(C(C)(F)F)n2)c(-c2csc(C#N)n2)cn1` [Example 790, N-(5-(2-cyanothiazol-4-yl)-4-((2-(1,1-difluoroethyl)pyrimidin-4-yl)amino)pyridin-2-yl)acetamide], the IC50 in experiment [1] and in experiment [2] was at most 10 nM throughout.
For `CC(=O)Nc1cc(Nc2cc(C)nc(C(C)(F)F)n2)c(-c2cnc(CN3CCCC3)cn2)cn1` [Example 791, N-(4-((2-(1,1-difluoroethyl)-6-methylpyrimidin-4-yl)amino)-5-(5-(pyrrolidin-1-ylmethyl)pyrazin-2-yl)pyridin-2-yl)acetamide], the IC50 in experiment [1] and in experiment [2] was at most 10 nM each time.
As for `CC(=O)Nc1cc(Nc2cc(C)nc(C(C)(F)F)n2)c(-c2cnc(CN3CCN(C)CC3)cn2)cn1` [Example 792, N-(4-((2-(1,1-difluoroethyl)-6-methylpyrimidin-4-yl)amino)-5-(5-((4-methylpiperazin-1-yl)methyl)pyrazin-2-yl)pyridin-2-yl)acetamide], the IC50 (usually the point on the concentration scale where inhibition reaches its midpoint) in experiment [1] is at most 10 nM; in experiment [2], 10 to 100 nM.
The like results for `CC(=O)Nc1cc(Nc2cc(C)nc(C(C)(F)F)n2)c(-c2cnc(CN3CCOCC3)cn2)cn1` [Example 793, N-(4-((2-(1,1-difluoroethyl)-6-methylpyrimidin-4-yl)amino)-5-(5-(morpholinomethyl)pyrazin-2-yl)pyridin-2-yl)acetamide] were, in that order, at most 10 nM and at most 10 nM.
The like results for `CNC(=O)Nc1cc(Nc2ccnc(C(C)(F)F)n2)c(-c2cc3n(n2)CCN(C)C3)cn1` [Example 794, 1-(4-((2-(1,1-difluoroethyl)pyrimidin-4-yl)amino)-5-(5-methyl-4,5,6,7-tetrahydropyrazolo[1,5-a]pyrazin-2-yl)pyridin-2-yl)-3-methylurea] were, in that order, at most 10 nM and at most 10 nM.
The like results for `CNC(=O)Nc1cc(Nc2ccnc(C(C)(F)F)n2)c(-c2nc3c(s2)CN(C)CC3)cn1` [Example 795, 1-(4-((2-(1,1-difluoroethyl)pyrimidin-4-yl)amino)-5-(5-methyl-4,5,6,7-tetrahydrothiazolo[5,4-c]pyridin-2-yl)pyridin-2-yl)-3-methylurea] were, in that order, at most 10 nM and at most 10 nM.
In the case of `CC(=O)Nc1cc(Nc2ccnc(C(C)(F)F)n2)c(-c2nc3c(s2)CCN(C)C3)cn1` [Example 797, N-(4-((2-(1,1-difluoroethyl)pyrimidin-4-yl)amino)-5-(5-methyl-4,5,6,7-tetrahydrothiazolo[4,5-c]pyridin-2-yl)pyridin-2-yl)acetamide], the IC50 in experiment [1] and in experiment [2] was at most 10 nM throughout.
As to `CCc1cc(Nc2cc(NC(C)=O)ncc2-c2ccncn2)nc(C(C)(C)F)n1` [Example 801, N-(4-((6-ethyl-2-(2-fluoropropan-2-yl)pyrimidin-4-yl)amino)-5-(pyrimidin-4-yl)pyridin-2-yl)acetamide], the IC50 in experiment [1] and in experiment [2] was at most 10 nM in each case.
For `CC(=O)Nc1cc(Nc2cc(C)nc(C(C)(F)F)n2)c(-c2cc(C(C)(C)N(C)C)n(C)n2)cn1` [Example 802, N-(4-((2-(1,1-difluoroethyl)-6-methylpyrimidin-4-yl)amino)-5-(5-(2-(dimethylamino)propan-2-yl)-1-methyl-1H-pyrazol-3-yl)pyridin-2-yl)acetamide], the IC50 in experiment [1] and in experiment [2] was at most 10 nM throughout.
In the case of `CC(=O)Nc1cc(Nc2cc(C)nc(C(C)(F)F)n2)c(-c2cc(CN3CCCC3)n(C)n2)cn1` [Example 803, N-(4-((2-(1,1-difluoroethyl)-6-methylpyrimidin-4-yl)amino)-5-(1-methyl-5-(pyrrolidin-1-ylmethyl)-1H-pyrazol-3-yl)pyridin-2-yl)acetamide], the IC50 in experiment [1] and in experiment [2] was at most 10 nM throughout.
For `CC(=O)Nc1cc(Nc2cc(C)nc(C(C)(F)F)n2)c(-c2cc(CN3CCN(C)CC3)n(C)n2)cn1` [Example 804, N-(4-((2-(1,1-difluoroethyl)-6-methylpyrimidin-4-yl)amino)-5-(1-methyl-5-((4-methylpiperazin-1-yl)methyl)-1H-pyrazol-3-yl)pyridin-2-yl)acetamide], the IC50 in experiment [1] and in experiment [2] was at most 10 nM throughout.
As for `CC(=O)Nc1cc(Nc2cc(C)nc(C(C)(F)F)n2)c(-c2cc(CN3CCCC3)ccn2)cn1` [Example 805, N-(4′-((2-(1,1-difluoroethyl)-6-methylpyrimidin-4-yl)amino)-4-(pyrrolidin-1-ylmethyl)-[2,3′-bipyridin]-6′-yl)acetamide], the IC50 was at most 10 nM in experiment [1] and 10 to 100 nM in experiment [2].
Consider `CC(=O)Nc1cc(Nc2cc(C)nc(C(C)(F)F)n2)c(-c2cnc(CN(C)C)cn2)cn1` [Example 807, N-(4-((2-(1,1-difluoroethyl)-6-methylpyrimidin-4-yl)amino)-5-(5-((dimethylamino)methyl)pyrazin-2-yl)pyridin-2-yl)acetamide], for which the IC50 in experiment [1] and in experiment [2] was at most 10 nM throughout.
`COc1cc(Nc2ccnc(NC(C)=O)c2)nc(C(C)(F)F)n1` [Example 808, N-(4-((2-(1,1-difluoroethyl)-6-methoxypyrimidin-4-yl)amino)pyridin-2-yl)acetamide]: the values for the IC50 in experiment [1] and in experiment [2] were 10 to 100 nM and at least 1000 nM, respectively.
As to `CC(=O)Nc1cc(Nc2cc(C)nc(C(C)(F)F)n2)c(-c2cnn(C)c2)cn1` [Example 812, N-(4-((2-(1,1-difluoroethyl)-6-methylpyrimidin-4-yl)amino)-5-(1-methyl-1H-pyrazol-4-yl)pyridin-2-yl)acetamide], the IC50 in experiment [1] is 10 to 100 nM; in experiment [2], at least 1000 nM.
The like results for `CC(=O)Nc1cc(Nc2cc(C)nc(C(C)(F)F)n2)c(-c2ccc3c(n2)OCC(C)(C)O3)cn1` [Example 813, N-(4-((2-(1,1-difluoroethyl)-6-methylpyrimidin-4-yl)amino)-5-(2,2-dimethyl-2,3-dihydro-[1,4]dioxino[2,3-b]pyridin-6-yl)pyridin-2-yl)acetamide] were, in that order, at most 10 nM and at most 10 nM.
For `CC(=O)Nc1cc(Nc2cc(C)nc(C(C)(F)F)n2)c(-c2cc(F)n(C)n2)cn1` [Example 814, N-(4-((2-(1,1-difluoroethyl)-6-methylpyrimidin-4-yl)amino)-5-(5-fluoro-1-methyl-1H-pyrazol-3-yl)pyridin-2-yl)acetamide], in that order: at most 10 nM and at most 10 nM.
The like results for `COc1cnc(-c2cnc(NC(C)=O)cc2Nc2cc(C)nc(C(C)(F)F)n2)cn1` [Example 815, N-(4-((2-(1,1-difluoroethyl)-6-methylpyrimidin-4-yl)amino)-5-(5-methoxypyrazin-2-yl)pyridin-2-yl)acetamide] were, in that order, at most 10 nM and at least 1000 nM.
